In patent publication US4603121A, “Enkephalin analogs” (G. D. Searle & Co., priority 1984, dated 1986):

Experiments:
[1] = system: PBQ-induced writhing in mice; assay: PBQ-Writhing assay; assay type: in vivo; details: male mice, subcutaneous, ED50 from number of animals protected compared to saline controls
Procedure: PBQ-Writhing assay. Groups of 10 male mice weighing 20 to 35 grams are used for each dose and for the vehicle control. Writhing is induced 30 or 60 minutes following drug or drug vehicle administration by the intraperitoneal injection of a 0.025 percent solution of PBQ and 5 percent ethanol. The number of separate writhing motions occurring in a ten minute period starting 5 minutes following the PBQ challenge is counted for each mouse. A positive antinociceptive affect is assured when an individual animals' writhing frequency is less than or equal to 50 percent of the vehicle control group median frequency. ED50 values based on the number of positive responders per dose group is determined using the method of Litchfield and Wilcoxon. M. R. Fennessy et al. The Assessment of and Problems Involved in the Experimental Evaluation of Narcotic Analgesics. In Methods in Narcotics Research, Marcel Dekker, Inc., New York, 1975. H. Bomberg et al. Use of Writhing Test for Evaluating Analgesic Activity of Narcotic Analgesics, Proc. Soc. Ext. Biol. Med. 118: 763-766, 1965.
The compounds of the invention were evaluated with respect to analgesic activity utilizing the test procedures described previously. Set forth in Table I below are the test results in the writhing assay for certain preferred compounds of the invention within formula I. The data summarized represents the ED50 calculated on the basis of the number of animals protected at a dose of 10 mg/Kg of the active test compound compared to saline controls.

[2] = system: brain opiate receptor sites; details: partially purified brain opiate receptor sites; cited from earlier work
opiate activity = details: cited from earlier work
rat = details: injected directly into the brain of the rat; cited from earlier work

Row | Compound | Activity (ED50 mg/Kg - Administered Subcutaneously) [1] [mg/kg] | binding to opiate receptor sites [2] | activity in bioassays for opiate activity (opiate activity) | analgesic activity (rat)
1 | COC(=O)CCCCCNC(=O)[C@H](CC1CCCCC1)N(C)C(=O)CNC(=O)[C@@H](CCSC)NC(=O)[C@@H](N)Cc1c(C)cc(O)cc1C.Cl [Example 43, 2,6-dimethyl-L-tyrosyl-D-methionylglycyl-N-(6-methoxy-6-oxohexyl)-3-cyclohexyl-N^α -methyl-L-alaninamide monohydrochloride] | 0.20 |  |  | 
2 | CSCC[C@@H](NC(=O)[C@@H](N)Cc1c(C)cc(O)cc1C)C(=O)NCC(=O)N[C@@H](CC1CCCCC1)C(=O)NCCCCCC(=O)O.Cl [Example 127, 2,6-dimethyl-L-tyrosyl-D-methionylglycyl-N-(5-carboxypentyl)-3-cyclohexyl-L-alaninamide, monohydrochloride] | 0.09 |  |  | 
3 | 2,6-dimethyltyrosyl-D-norleucylglycyl-3-cyclohexyl-N-(6-methoxy-6-oxohexyl)-L-alaninamide, monohydrochloride(diastereomer-D) [Example 104] | 0.20 |  |  | 
4 | methionine enkephalin |  | binds stereospecifically | highly active | weak, fleeting analgesic activity
